Assay results as given in US20200390729A1, “OPHTHALMIC TOPICAL COMPOSITION COMPRISING DOBESILIC ACID FOR TREATING DISEASES OF THE POSTERIOR SEGMENT OF THE EYE” (LABORATORIOS SALVAT, S.A., priority 2017, published 2020).
Where two headings read alike, the source gives them in different places.

Tests used:
[1] = Ocular tolerability of CDO in rats, clinical eye evaluation; format: in vivo, Diabetic SD male rats; settings: CDO 100 mg/ml administered topically
Protocol: Diabetic SD male rats were treated with CDO compositions 2 and 5 of Example 1 for 28 days three times a day (topical instillation of 10 μl/eye). Clinical evaluation of the eye appearance was performed thorough the study.

[2] = tested on: diabetic rats induced by streptozotocin; experiment: Retinal vascularity (Evans Blue staining) in diabetic retinopathy model induced by streptozotocin; format: in vivo, SD male rats; settings: diabetic rats (group III), CDO 10 mg/ml topical 10 μl/eye TID 28 days
Protocol: (§1) Diabetes was induced in SD male rats by single intraperitoneal injection of streptozotocin (STZ) at 60 mg/kg body weight in citrate buffer (pH 4.5). Seven days after STZ administration, blood glucose was measured and the level of 250 mg/dl was considered the threshold value to consider diabetes induction. Ophthalmic treatment with CDO at 10 mg/ml (topical instillation of 10 μl/eye) was initiated once hyperglycemia was confirmed and continued for 28 days three times a day (TID). Rats were randomly divided in 3 groups: I. Control (non-diabetic), II. Diabetic rats with no treatment and III. Diabetic rats with CDO at 10 mg/ml.
(§2) At day 29 CDO was instilled a single time at 10 mg/ml in the group III, rats were euthanized and retinas were collected 15 minutes post-administration.
Retinal vascularity was observed by Evans Blue (EB) staining, based on the ability of EB to bind serum albumin immediately after intravenous injection. Thus Evans Blue 3% was injected through the tail vein at 1 ml/kg at 60 minutes before euthanasia at day 29. Eyeballs were fixed in paraformaldehyde 4%. Retinas were immediately after dissected and mounted in slides and observed by fluorescence microscopy.

[3] = tested on: egg chorioallantoic membrane (CAM); experiment: Ocular irritation assay (HET-CAM); set-up: species or system White Leghorn chicken eggs; settings: 100 mg/ml, CAM observed for 5 minutes
Source text: The HET-CAM is an alternative method to the Draize Rabbit Eye Test which mimics vascular changes in the chorioallantoic membrane, an analog for ocular conjunctiva, which can be used to determine the potential irritancy of a test substance. This method is based on that described in Hen's Egg Test-Chorioallantoic Membrane (HET-CAM) Test Method (ICCVAM-Recommended Test Method Protocol, NIH Publication No. 10-7553—Published 2010)
Fertilized white SPF (special pathogen free) White Leghorn chicken eggs were incubated at 37° C. and 60% humidity up to day 10. After determination of the viability of the embryo, a rectangular window was removed from the shell directly over the air cell and the egg membrane was carefully moistened with 2-3 ml 0.9% saline. After returning to the incubator for 30 minutes, the inner membrane was removed and the test substance was applied to the CAM membrane with a pipette. Eggs were observed continuously for 5 minutes for the appearance of lysis, hemorrhage and/or coagulation and an irritation score (IS) was determined following the ICCVAM-Recommended Test Method Protocol (NIH Publication No. 10-7553-Published 2010) guideline.

[4] = Ocular distribution of CDO in rabbits, single dose topical ocular vs. oral; format: in vivo, New Zealand White rabbit; settings: for concentration at 0.25 h / concentration at 1 h / concentration at 3 h / concentration at 6 h: New Zealand White
Protocol: In New Zealand White rabbit, weighing approximately 1.8 kg, CDO was administered by topical ocular instillation (33 μl/eye) at 10 mg/ml (composition 2 of Example 1), at 100 mg/ml (composition 5 of Example 1) or by oral gavage at 25 mg/kg in aqueous solution (from composition 1 of Example 1). At 15, 60, 180 and 360 minutes post-administration, animals were euthanized and plasma and ocular tissues including retina/choroid and optic nerve were collected.
Bioanalysis of CDO was performed depending on the type of matrix. In the case of plasma, proteins were precipitated using methanol. In the case of tissues, samples were grinded in a Mini Bead Beater using zirconium beads and methanol/water (1:1) (v/v) as solvent. After centrifugation, samples were analyzed by UPLC-MS/MS.
Chromatographic separation was carried out using an Acquity CSH Fluoro Phenyl column (1.7 μm, 50×2.1 mm). Mobile phase consisted of a gradient using 0.1% formic acid in water and acetonitrile from 5% to 45% in 4.5 min at a flow rate of 0.6 ml/min.
With regard to the mass spectrometric detection, the electrospray ionization source worked to record negative ions. Multiple Reaction Monitoring (MRM) acquisition mode of the deprotonated molecular ions was performed. The transition monitored for CDO was m/z 189.0→80.1 with a cone voltage of 45 V and collision energy of 25 eV.

[5] = tested on: oxidized glutathione (GSSG); experiment: Antioxidant capacity: GSSG in homogenized retinas, streptozotocin diabetic retinopathy model; format: in vivo, SD male rats; settings: diabetic rats, CDO 10 mg/ml topical 10 μl/eye TID 28 days; P<0.01 group II vs. group III
Protocol: as §1, §2
The antioxidant capacity was evaluated by determining the concentrations of Glutathione disulfide (GSSG) or oxidized glutathione in the homogenized retinas. Tissues were collected at day 29 and homogenized in PBS pH 6-7 containing 1 mM EDTA. After centrifugation at 10000 rpm, an aliquot of the supernatant was diluted in 0.1% formic acid and analyzed by UPLC-MS/MS. […]
With regard to the mass spectrometric detection, the electrospray ionization source worked to record negative ions. […] The transition monitored for GSSG was m/z 611.2→306.2 with a cone voltage of 45 V and collision energy of 25 eV.

[6] = optic nerve, rabbit, Oral 25 mg/Kg = 45 mg, read-out: CDO μg/g tissue Optic nerve
[7] = optic nerve, rabbit, Topical eye administration 10 mg/ml = 0.3 mg, read-out: CDO μg/g tissue Optic nerve
[8] = optic nerve, rabbit, Topical eye administration 100 mg/ml = 3.3 mg, read-out: CDO μg/g tissue Optic nerve
[9] = retina/choroid, rabbit, Oral 25 mg/Kg = 45 mg, read-out: CDO μg/g tissue Retina/Choroid
[10] = retina/choroid, rabbit, Topical eye administration 10 mg/ml = 0.3 mg, read-out: CDO μg/g tissue Retina/Choroid
[11] = retina/choroid, rabbit, Topical eye administration 100 mg/ml = 3.3 mg, read-out: CDO μg/g tissue Retina/Choroid

Question: Which “tolerance after topical administration” value [1] does the source give for `O=S(=O)(O)c1cc(O)ccc1O` [CDO, Calcium dobesilate monohydrate] here?
Answer: good tolerance

Question: And the “Retinal vascularity (fluorescence microscopy, Evans Blue)” value [2]?
Answer: well preserved retinas, with well-defined vessels with no evidence of vascular damages

Question: And the HET-CAM irritation characterization [3]?
Answer: not irritating

Question: And the “HET-CAM lysis, haemorrhage or coagulation processes” value [3]?
Answer: did not trigger any lysis, haemorrhage or coagulation processes

Question: What about the concentration at 0.25 h [4, 6] of the same molecule?
Answer: 0.74 µg/g

Question: And the concentration at 1 h [4, 6]?
Answer: 1.61 µg/g

Question: And the concentration at 3 h [4, 6]?
Answer: 0.49 µg/g

Question: And the concentration at 6 h [4, 6]?
Answer: 0.1 µg/g

Question: And the concentration at 0.25 h [4, 7]?
Answer: 0.23 µg/g

Question: What about the concentration at 1 h [4, 7] of the same molecule?
Answer: 0.76 µg/g

Question: And the concentration at 3 h [4, 7]?
Answer: 0.65 µg/g

Question: What about the concentration at 6 h [4, 7] of the same molecule?
Answer: 0.45 µg/g

Question: And the concentration at 0.25 h [4, 8]?
Answer: 14.4 µg/g

Question: What about the concentration at 1 h [4, 8] of the same molecule?
Answer: 22.9 µg/g

Question: And the concentration at 3 h [4, 8]?
Answer: 4.5 µg/g

Question: And the concentration at 6 h [4, 8]?
Answer: 1.92 µg/g

Question: And the concentration at 0.25 h [4, 9]?
Answer: 0.43 µg/g

Question: And the concentration at 1 h [4, 9]?
Answer: 0.95 µg/g

Question: What about the concentration at 3 h [4, 9] of the same molecule?
Answer: 0.28 µg/g

Question: What about the concentration at 6 h [4, 9] of the same molecule?
Answer: 0.12 µg/g

Question: What about the concentration at 0.25 h [4, 10] of the same molecule?
Answer: 0.27 µg/g

Question: What about the concentration at 1 h [4, 10] of the same molecule?
Answer: 0.29 µg/g

Question: And the concentration at 3 h [4, 10]?
Answer: 0.16 µg/g

Question: And the concentration at 6 h [4, 10]?
Answer: 0.11 µg/g

Question: And the concentration at 0.25 h [4, 11]?
Answer: 7.88 µg/g

Question: And the concentration at 1 h [4, 11]?
Answer: 6.41 µg/g

Question: And the concentration at 3 h [4, 11]?
Answer: 3.47 µg/g

Question: And the concentration at 6 h [4, 11]?
Answer: 1.14 µg/g

Question: What about the “CDO amounts in target tissues (optic nerve and retina choroids) 6 hours after topical ocular administration” value ([4]; rabbit, 6 hours after topical ocular administration) of the same molecule?
Answer: could be detected

Question: What about the “values of CDO in target tissues, topical vs. single oral dose” value ([4]; rabbits, topical eye single low dose 0.3 mg vs oral 45 mg) of the same molecule?
Answer: equivalent to those of a single oral dose (45 mg)

Question: What about the “levels of the drug in target tissues, topical vs. single oral dose” value ([4]; rabbits, topical single dose CDO 3.3 mg vs single oral dose) of the same molecule?
Answer: higher levels of the drug are detected than those obtained following a single oral dose

Question: And the “retinal concentrations of GSSG” value [5]?
Answer: return concentrations of GSSG at the same level as the control group
